Patent US20090042814A1, “Treatment and Diagnosis of Obligate Intracellular Pathogens” (priority 2005, published 2009)

Legend:
Chlamydia trachomatis = experiment: Antibiotic susceptibility test in McCoy cells (MIC, no inclusions detected); assay type: cell-based; conditions: 72 h
Protocol: (§1) For Chlamydia trachomatis isolation McCoy cells were used and for Chlamydia pneumoniae—HL cells.
(§2) Cells of each cell line were seeded into 24-well cell culture plates (approximately 2×10^5 cells per well) with cover-slips and incubated at 37° C. for 24 h to achieve monolayer confluence.
(§3) 1 ml of serum was centrifuged at 14,000×g for 1 h at 4° C. to sediment bacterial cells. Supernatant was discarded and pellet was suspended in 0.5 ml of GM (growth medium: RPMI, 5% [vol/vol] fetal calf serum, 2.0 mM L-glutamine, 8.8% [vol/vol] glucose, 4.0 μg of gentamicin per ml and 5.0 of amfotherycin B/ml). The cell monolayers were inoculated with the suspensions and centrifuged at 2,500×g for an hour at 20 °C. The infected cells were incubated for 2 h at 37° C.; after that, the medium was removed and replaced by GM with cycloheximide (1.0 μg/ml). The cells were incubated at 37° C. in 4% CO2 for 72 h.
(§4) The cells on the cover-slips were fixed with acetone and stained with a fluorescein isothiocyanate (FITC)-labeled Chlamydia genus-specific (anti-LPS) and Chlamydia trachomatis-specific (anti-MOMP) antibodies. Chlamydia inclusions were detected by fluorescent microscopy.
(§5) McCoy and HL cells were seeded and inoculated with serum samples as described above but after centrifugation at 2,500×g for an hour and incubation for 2 h at 37° C. the infected cells were overlaid with the growth medium containing serial twofold dilutions of the antibiotic (Azithromycin, Pliva) at concentration range from 0.05 to 0.8 μg/ml and incubated at 37° C. in 4% CO2 for 72 h. Chlamydia trachomatis L-2 and Chlamydia pneumoniae Kajaani 6 strains were used as reference strains. The MIC was defined as the lowest concentration at which no inclusions were detected.

Chlamydia pneumoniae = experiment: Antibiotic susceptibility test in HL cells (MIC, no inclusions detected); assay type: cell-based; conditions: 72 h
Protocol: as §1, §2, §3, §4, §5

CC[C@H]1OC(=O)[C@H](C)[C@@H](O[C@H]2C[C@@](C)(OC)[C@@H](O)[C@H](C)O2)[C@H](C)[C@@H](O[C@@H]2O[C@H](C)C[C@H](N(C)C)[C@H]2O)[C@](C)(O)C[C@@H](C)CN(C)[C@H](C)[C@@H](O)[C@]1(C)O [Azithromycin]
Range of anti-microbial concentration (Chlamydia trachomatis; Chlamydia trachomatis isolated from serum of Patient A): >0.4 µg/mL | Range of anti-microbial concentration (Chlamydia trachomatis; Chlamydia trachomatis isolated from serum of Patient B): >0.4 µg/mL | Range of anti-microbial concentration (Chlamydia trachomatis; Chlamydia trachomatis reference strain L-2, tested range 0.05 to 0.8 μg/ml): >0.1 µg/mL | Range of anti-microbial concentration (Chlamydia pneumoniae; Chlamydia pneumoniae isolated from serum of Patient C): >0.4 µg/mL | Range of anti-microbial concentration (Chlamydia pneumoniae; Chlamydia pneumoniae isolated from serum of Patient D): >0.4 µg/mL | Range of anti-microbial concentration (Chlamydia pneumoniae; Chlamydia pneumoniae reference strain Kajaani 6): >0.05 µg/mL
